Results reported in US9758538B2, “Pyrimidine derivatives” (PFIZER INC., priority 2015, dated 2017).

molecular target: truncated PI3Kα (p110α/iSH2 p85α), PI3KA_Act (Homo sapiens (Human), UniProt P42336); assay: PI3Kα biochemical kinase assay, fluorescence polarization format (PI3KA_Act); conditions: 0.5 nM p110α/iSH2 p85, 1 mM ATP, 30 μM PIP2, 15-min preincubation; Morrison equation fit; read-out: PI3KA_Act Ki
How it was run: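 Enzyme: His-tagged p110α/p85α niSH2 complex from Sf21 baculovirus expression, IMAC-purified, tag cleaved, then SEC. Reactions ran 30 min at room temperature, stopped with 10 mM EDTA pH 8 (final), and were read by fluorescence polarization.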

truncated PI3Kα (p110α/iSH2 p85α), PI3KA_Act, sequence (P42336 whole entry, the tested form may be a part): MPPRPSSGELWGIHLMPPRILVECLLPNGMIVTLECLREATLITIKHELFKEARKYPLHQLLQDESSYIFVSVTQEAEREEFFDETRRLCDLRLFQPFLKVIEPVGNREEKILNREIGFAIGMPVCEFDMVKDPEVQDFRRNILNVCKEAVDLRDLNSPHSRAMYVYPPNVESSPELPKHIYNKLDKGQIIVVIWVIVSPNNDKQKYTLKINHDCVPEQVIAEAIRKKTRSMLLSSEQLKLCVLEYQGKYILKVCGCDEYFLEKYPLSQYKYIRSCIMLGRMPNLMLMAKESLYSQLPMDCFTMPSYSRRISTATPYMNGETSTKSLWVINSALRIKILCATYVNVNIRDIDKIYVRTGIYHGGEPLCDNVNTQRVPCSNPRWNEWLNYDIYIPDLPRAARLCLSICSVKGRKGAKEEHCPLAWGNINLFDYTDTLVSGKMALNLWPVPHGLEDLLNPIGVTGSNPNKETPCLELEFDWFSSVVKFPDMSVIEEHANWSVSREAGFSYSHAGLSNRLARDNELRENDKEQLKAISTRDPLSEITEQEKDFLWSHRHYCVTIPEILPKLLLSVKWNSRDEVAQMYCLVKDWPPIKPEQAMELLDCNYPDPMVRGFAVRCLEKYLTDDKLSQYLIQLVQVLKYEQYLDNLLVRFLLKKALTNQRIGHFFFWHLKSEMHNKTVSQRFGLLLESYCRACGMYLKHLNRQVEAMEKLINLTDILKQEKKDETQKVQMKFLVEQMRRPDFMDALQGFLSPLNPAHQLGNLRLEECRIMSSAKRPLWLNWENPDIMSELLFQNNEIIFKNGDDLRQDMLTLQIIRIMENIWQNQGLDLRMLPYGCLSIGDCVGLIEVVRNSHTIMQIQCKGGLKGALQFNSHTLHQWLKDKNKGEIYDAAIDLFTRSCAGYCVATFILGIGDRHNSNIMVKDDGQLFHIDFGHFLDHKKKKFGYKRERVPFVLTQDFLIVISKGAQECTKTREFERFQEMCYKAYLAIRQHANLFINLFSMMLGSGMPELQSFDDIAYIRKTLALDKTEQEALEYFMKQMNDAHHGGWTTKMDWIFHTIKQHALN

Row | Ki [nM] | SMILES
1 | 0.674 | C[C@H]1COCCN1c1nc(N[C@@]2(CO)CCN(C(=O)C3COC3)C2)cc(-c2cnc(N)nc2)n1 [Example 104, [(3S)-3-({2′-amino-2-[(3S)-3-methylmorpholin-4-yl]-4,5′-bipyrimidin-6-yl}amino)-3-(hydroxymethyl)pyrrolidin-1-yl](oxetan-3-yl)methanone]
2 | 0.489 | Nc1ncc(-c2cc(NC3(CF)CCN(C(=O)OCc4ccccc4)C3)nc(N3CCOCC3)n2)cn1 (centres unmarked) [Example 105, benzyl 3-{[2′-amino-2-(morpholin-4-yl)-4,5′-bipyrimidin-6-yl]amino}-3-(fluoromethyl)pyrrolidine-1-carboxylate]
3 | 0.12 | CC(=O)N1CC[C@](C)(Nc2nc(N3CCOCC3)nc(-c3cnc(N)nc3)c2F)C1 [Example 106, 1-[(3S)-3-{[2′-amino-5-fluoro-2-(morpholin-4-yl)-4,5′-bipyrimidin-6-yl]amino}-3-methylpyrrolidin-1-yl]ethanone]
4 | 0.23 | CC(C)C(=O)N1CC[C@](C)(Nc2nc(N3CCOCC3)nc(-c3cnc(N)nc3)c2F)C1 [Example 107, 1-[(3S)-3-{[2′-amino-5-fluoro-2-(morpholin-4-yl)-4,5′-bipyrimidin-6-yl]amino}-3-methylpyrrolidin-1-yl]-2-methylpropan-1-one]
5 | 0.036 | CC(C)(C)OC(=O)N1CC[C@](C)(Nc2nc(N3CCOCC3)nc(-c3cnc(N)nc3)c2F)C1 [Example 108, tert-butyl (3S)-3-{[2′-amino-5-fluoro-2-(morpholin-4-yl)-4,5′-bipyrimidin-6-yl]amino}-3-methylpyrrolidine-1-carboxylate]
6 | 0.072 | CC(C)(C)OC(=O)N1CCC(CF)(Nc2cc(-c3cnc(N)nc3)nc(N3CCOCC3)n2)C1 (centres unmarked) [Example 110, tert-butyl 3-{[2′-amino-2-(morpholin-4-yl)-4,5′-bipyrimidin-6-yl]amino}-3-(fluoromethyl)pyrrolidine-1-carboxylate]
7 | < 0.018 | C[C@H]1COCCN1c1nc(N[C@@]2(CO)CCN(C(=O)OC(C)(C)C)C2)c(F)c(-c2cnc(N)nc2)n1 [Example 111, tert-butyl (3S)-3-({2′-amino-5-fluoro-2-[(3S)-3-methylmorpholin-4-yl]-4,5′-bipyrimidin-6-yl}amino)-3-(hydroxymethyl)pyrrolidine-1-carboxylate]
8 | 1.01 | C[C@H]1COCCN1c1nc(N[C@@]2(CO)CCNC2)c(F)c(-c2cnc(N)nc2)n1 [Example 112, [(3S)-3-({2′-amino-5-fluoro-2-[(3S)-3-methylmorpholin-4-yl]-4,5′-bipyrimidin-6-yl}amino)pyrrolidin-3-yl]methanol]
9 | 3.23 | CCOC(=O)N1CC[C@](COC(C)=O)(Nc2cc(-c3cnc(N)nc3)nc(N3CCOCC3)n2)C1 [Example 113, ethyl (3S)-3-[(acetyloxy)methyl]-3-{[2′-amino-2-(morpholin-4-yl)-4,5′-bipyrimidin-6-yl]amino}pyrrolidine-1-carboxylate]
10 | < 0.018 | COC(=O)N1CC[C@](CO)(Nc2nc(N3CCOC[C@@H]3C)nc(-c3cnc(N)nc3)c2F)C1 [Example 114, methyl (3S)-3-({2′-amino-5-fluoro-2-[(3S)-3-methylmorpholin-4-yl]-4,5′-bipyrimidin-6-yl}amino)-3-(hydroxymethyl)pyrrolidine-1-carboxylate]
11 | 0.036 | Nc1ncc(-c2nc(N3CCOCC3)nc(N[C@@]3(CO)CCN(C(=O)C4(F)CCC4)C3)c2F)cn1 [Example 115, [(3S)-3-{[2′-amino-5-fluoro-2-(morpholin-4-yl)-4,5′-bipyrimidin-6-yl]amino}-3-(hydroxymethyl)pyrrolidin-1-yl](1-fluorocyclobutyl)methanone]
12 | < 0.018 | C[C@H]1COCCN1c1nc(N[C@@]2(CO)CCN(C(=O)OC3CC3)C2)c(F)c(-c2cnc(N)nc2)n1 [Example 117, cyclopropyl (3S)-3-({2′-amino-5-fluoro-2-[(3S)-3-methylmorpholin-4-yl]-4,5′-bipyrimidin-6-yl}amino)-3-(hydroxymethyl)pyrrolidine-1-carboxylate]
13 | < 0.018 | CCOC(=O)N1CC[C@](CO)(Nc2nc(-c3cnc(N)nc3)nc(N3CCOC[C@@H]3C)n2)C1 [Example 118, ethyl (3S)-3-({4-(2-aminopyrimidin-5-yl)-6-[(3S)-3-methylmorpholin-4-yl]-1,3,5-triazin-2-yl}amino)-3-(hydroxymethyl)pyrrolidine-1-carboxylate]
14 | < 0.018 | C[C@H]1COCCN1c1nc(N[C@@]2(CO)CCN(C(=O)C3CC3)C2)c(F)c(-c2cnc(N)nc2)n1 [Example 120, [(3S)-3-({2′-amino-5-fluoro-2-[(3S)-3-methylmorpholin-4-yl]-4,5′-bipyrimidin-6-yl}amino)-3-(hydroxymethyl)pyrrolidin-1-yl](cyclopropyl)methanone]
15 | 0.15 | CCOC(=O)N1CC[C@](COC)(Nc2cc(-c3cnc(N)nc3)nc(N3CCOCC3)n2)C1 [Example 121, ethyl (3S)-3-{[2′-amino-2-(morpholin-4-yl)-4,5′-bipyrimidin-6-yl]amino}-3-(methoxymethyl)pyrrolidine-1-carboxylate]
16 | 21.5 | COC[C@]1(Nc2cc(-c3cnc(N)nc3)nc(N3CCOCC3)n2)CCNC1 [Example 122, N˜6˜-[(3S)-3-(methoxymethyl)pyrrolidin-3-yl]-2-(morpholin-4-yl)-4,5′-bipyrimidine-2′,6-diamine]
17 | 1.7 | CC(C)(C)OC(=O)N1CCCC(CO)(Nc2cc(-c3cnc(N)nc3)nc(N3CCOCC3)n2)C1 (centres unmarked) [Example 123, tert-butyl 3-{[2′-amino-2-(morpholin-4-yl)-4,5′-bipyrimidin-6-yl]amino}-3-(hydroxymethyl)piperidine-1-carboxylate]
18 | 0.046 | C[C@H]1COCCN1c1nc(N[C@@]2(CF)CCN(C(=O)OC(C)(C)C)C2)cc(-c2cnc(N)nc2)n1 [Example 124, tert-butyl (3S)-3-({2′-amino-2-[(3S)-3-methylmorpholin-4-yl]-4,5′-bipyrimidin-6-yl}amino)-3-(fluoromethyl)pyrrolidine-1-carboxylate]
19 | 118 | Cc1ncc(-c2cc(N[C@@]3(CO)CCN(C(=O)OC(C)(C)C)C3)nc(N3CCOCC3)n2)cc1C#N [Example 125, tert-butyl (3S)-3-{[6-(5-cyano-6-methylpyridin-3-yl)-2-(morpholin-4-yl)pyrimidin-4-yl]amino}-3-(hydroxymethyl)pyrrolidine-1-carboxylate]
20 | 1.92 | Cc1ncc(-c2cc(N[C@@]3(CO)CCN(C(=O)OC(C)(C)C)C3)nc(N3CCOCC3)n2)cn1 [Example 126, tert-butyl (3S)-3-(hydroxymethyl)-3-{[2′-methyl-2-(morpholin-4-yl)-4,5′-bipyrimidin-6-yl]amino}pyrrolidine-1-carboxylate]
21 | 19 | Cc1ncc(-c2cc(N[C@@]3(CO)CCN(C(=O)OC(C)(C)C)C3)nc(N3CCOCC3)n2)cc1F [Example 127, tert-butyl (3S)-3-{[6-(5-fluoro-6-methylpyridin-3-yl)-2-(morpholin-4-yl)pyrimidin-4-yl]amino}-3-(hydroxymethyl)pyrrolidine-1-carboxylate]
22 | 110 | CCOC(=O)N1CC[C@](CO)(Nc2cc(-c3cnc(C)c(C#N)c3)nc(N3CCOCC3)n2)C1 [Example 128, ethyl (3S)-3-{[6-(5-cyano-6-methylpyridin-3-yl)-2-(morpholin-4-yl)pyrimidin-4-yl]amino}-3-(hydroxymethyl)pyrrolidine-1-carboxylate]
23 | 8.29 | CCOC(=O)N1CC[C@](CO)(Nc2cc(-c3cnc(C)c(F)c3)nc(N3CCOCC3)n2)C1 [Example 129, ethyl (3S)-3-{[6-(5-fluoro-6-methylpyridin-3-yl)-2-(morpholin-4-yl)pyrimidin-4-yl]amino}-3-(hydroxymethyl)pyrrolidine-1-carboxylate]
24 | 0.83 | CCOC(=O)N1CC[C@](CO)(Nc2cc(-c3cnc(C)nc3)nc(N3CCOCC3)n2)C1 [Example 130, ethyl (3S)-3-(hydroxymethyl)-3-{[2′-methyl-2-(morpholin-4-yl)-4,5′-bipyrimidin-6-yl]amino}pyrrolidine-1-carboxylate]
25 | 0.205 | Nc1ncc(-c2cc(N[C@@]3(CO)CCN(C(=O)NCC(F)F)C3)nc(N3CCOCC3)n2)cn1 [Example 131, (3S)-3-{[2′-amino-2-(morpholin-4-yl)-4,5′-bipyrimidin-6-yl]amino}-N-(2,2-difluoroethyl)-3-(hydroxymethyl)pyrrolidine-1-carboxamide]
26 | 0.097 | Nc1ncc(-c2nc(N3CCOCC3)nc(N[C@@]3(CO)CCN(C(=O)NCC(F)F)C3)c2F)cn1 [Example 132, (3S)-3-{[2′-amino-5-fluoro-2-(morpholin-4-yl)-4,5′-bipyrimidin-6-yl]amino}-N-(2,2-difluoroethyl)-3-(hydroxymethyl)pyrrolidine-1-carboxamide]
27 | 0.795 | Nc1ncc(-c2cc(N[C@@]3(CO)CCN(C(=O)NCC(F)(F)F)C3)nc(N3CCOCC3)n2)cn1 [Example 133, (3S)-3-{[2′-amino-2-(morpholin-4-yl)-4,5′-bipyrimidin-6-yl]amino}-3-(hydroxymethyl)-N-(2,2,2-trifluoroethyl)pyrrolidine-1-carboxamide]
28 | 0.739 | Cc1ncc(-c2cc(N[C@@]3(CO)CCN(C(=O)C4(F)CC4)C3)nc(N3CCOCC3)n2)cn1 [Example 136, (1-fluorocyclopropyl)[(3S)-3-(hydroxymethyl)-3-{[2′-methyl-2-(morpholin-4-yl)-4,5′-bipyrimidin-6-yl]amino}pyrrolidin-1-yl]methanone]

same assay, conditions: PI3KA_Act Ki (nM), 0.5 nM p110α/iSH2 p85, 1 mM ATP, 30 μM PIP2, 15-min preincubation; Morrison equation fit

Row | SMILES | Ki [nM]
29 | C[C@H]1COCCN1c1nc(N[C@@]2(CO)CCN(C(=O)OCC(F)F)C2)c(F)c(-c2cnc(N)nc2)n1 [Example 119, 2,2-difluoroethyl (3S)-3-({2′-amino-5-fluoro-2-[(3S)-3-methylmorpholin-4-yl]-4,5′-bipyrimidin-6-yl}amino)-3-(hydroxymethyl)pyrrolidine-1-carboxylate] | < 0.018
